Measurements taken from publication PMC3857906, “Ligand-Specific Regulation of the Endogenous Mu-Opioid Receptor by Chronic Treatment with Mu-Opioid Peptide Agonists” (BioMed Research International, 2013).
Read-outs that look alike come from different tables or passages of the source.

Columns and labels:
[1] = target: T1, mu-opioid receptors (Rattus norvegicus, UniProt P33535); conditions: icv administration, in situ autoradiography; cited from earlier work
[2] = target: T2, mu-opioid receptors (coupling to G-proteins) (Rattus norvegicus, UniProt P33535); assay: DAMGO-stimulated [35S]GTPγS binding in rat brain subcellular fractions (SPM, MI) after in vivo chronic opioid peptide treatment; assay type: biochemical; conditions: for effect of chronic treatment on G-protein coupling / [35S]GTPγS incorporation: 10 μg icv twice daily for 8 days
T2 construct: fresh forebrains of four rats were pooled, gently homogenized; from tissue; host or cells: rat forebrain, synaptic plasma membrane (SPM) and microsomal (MI) fractions, from vehicle- or peptide-treated animals
T2 sequence (P33535 whole entry): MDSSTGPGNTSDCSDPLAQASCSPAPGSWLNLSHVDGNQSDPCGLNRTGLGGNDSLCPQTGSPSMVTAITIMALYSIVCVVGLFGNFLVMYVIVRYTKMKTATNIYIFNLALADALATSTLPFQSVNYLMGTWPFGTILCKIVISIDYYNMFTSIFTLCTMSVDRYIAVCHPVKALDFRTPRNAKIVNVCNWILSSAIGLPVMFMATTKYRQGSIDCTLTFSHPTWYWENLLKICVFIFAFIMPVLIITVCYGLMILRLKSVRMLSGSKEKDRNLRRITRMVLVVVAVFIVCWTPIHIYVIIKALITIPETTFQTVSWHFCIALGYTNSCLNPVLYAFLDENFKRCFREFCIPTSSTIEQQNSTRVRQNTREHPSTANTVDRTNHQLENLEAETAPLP
Method: The peptides were dissolved in artificial cerebrospinal fluid (CSF) and injected in a volume of 2 μL. […] Animals were killed 16 hrs after drug treatments by decapitation immediately followed by subcellular fractionation.
Subcellular fractions of rat brains were purified as published. Briefly, fresh forebrains of four rats were pooled, gently homogenized in 10 volumes (v/w) of ice-cold buffer (5 mM Tris-HCl pH 7.4, 50 μM CaCl2, 0.5 mM dithiothreitol), and supplemented with 10% sucrose. All sucrose solutions were made in the above buffer. The homogenate was spun at 1,000 ×g for 10 min. The resulting pellet was resuspended in the above buffer and spun again. The combined supernatants were spun at 12,000 ×g for 20 min. The pellets were suspended in 10% sucrose and subjected to consecutive centrifugations at 20,000 ×g for 25 min and 14,000 ×g for 20 min twice resulting in crude synaptic plasma membranes (SPM). The resulting pellets were lysed followed by fractionation on a 10%, 28.5%, and 34% sucrose density step gradient that was spun at 100,000 ×g for 2 h. Highly enriched SPMs were obtained from the 28/34% interface. Crude microsomal (MI) fractions were obtained from the 12,000 ×g supernatant by consecutive centrifugations at 20,000 ×g for 25 min and 100,000 ×g for 1 h. MI fractions were purified on a 10% and 28.5% sucrose step gradient centrifuged at 100,000 ×g for 2 h and collected at 10/28.5% interface. SPM and MI fractions were diluted threefold with 50 mM Tris-HCl buffer and pelleted at 100,000 ×g for 1 h to remove sucrose. The resulting pellets were taken up in 50 mM Tris-HCl (pH 7.4) buffer to yield in 0.3–0.8 mg membrane protein/ml and were freshly used.
(§1) The assay was performed as published with slight modifications. Briefly, rat brain membrane fractions (≈10 μg of protein) were incubated with [^35S]GTPγS (0.05 nM) and 5-6 concentrations (10^−9−10^−4 M) of opioid peptides in the presence of 100 μM GDP in Tris-EGTA (50 mM Tris-HCl, 1 mM EGTA and 5 mM MgCl2; pH 7.4) buffer in a total volume of 1 mL for 60 min at 30°C. Nonspecific binding was determined with 10 μM GTPγS and subtracted. Bound and free [^35S]GTPγS were separated by vacuum filtration through Whatman GF/F filters using a Brandel M24-R Cell Harvester (Brandel, Gaithersburg, MD, USA). Filters were rapidly washed with 3 × 5 mL ice-cold 50 mM Tris-HCl (pH 7.4) buffer, air-dried, and counted in a toluene-based scintillation cocktail in a Wallac 1409 scintillation counter (Wallac, Turku, Finland). All assays were performed in triplicate and repeated at least three times. Curves were constructed and analyzed by fitting sigmoidal dose-response curves using the GraphPad Prism 4 program (GraphPad Prism Software Inc) to obtain potency (EC50, concentration of the ligand to give half-maximal effect) and efficacy (E max, % maximal stimulation over basal activity) values. Basal activities were measured in the absence of opioid ligands and set as 0%. The data reported are means ± S.E.M.

[3] = target: T1, mu-opioid receptors; assay: [3H]DAMGO homologous displacement binding in rat brain subcellular fractions (SPM, MI) after in vivo treatment; parameters: fresh forebrains of four rats were pooled, gently homogenized; from tissue; host or cells: rat forebrain, synaptic plasma membrane (SPM) and microsomal (MI) fractions, from vehicle- or peptide-treated animals; conditions: chronic treatment, vs vehicle control
Method: The peptides were dissolved in artificial cerebrospinal fluid (CSF) and injected in a volume of 2 μL. Endomorphins were administered either acutely at the indicated doses (100 pg–20 μg) or chronically at 20 μg for 10 days (twice daily) and tested at the indicated times. […] Animals were killed 16 hrs after drug treatments by decapitation immediately followed by subcellular fractionation.
Subcellular fractions of rat brains were purified as published. Briefly, fresh forebrains of four rats were pooled, gently homogenized in 10 volumes (v/w) of ice-cold buffer (5 mM Tris-HCl pH 7.4, 50 μM CaCl2, 0.5 mM dithiothreitol), and supplemented with 10% sucrose. All sucrose solutions were made in the above buffer. The homogenate was spun at 1,000 ×g for 10 min. The resulting pellet was resuspended in the above buffer and spun again. The combined supernatants were spun at 12,000 ×g for 20 min. The pellets were suspended in 10% sucrose and subjected to consecutive centrifugations at 20,000 ×g for 25 min and 14,000 ×g for 20 min twice resulting in crude synaptic plasma membranes (SPM). […]
Filters were rapidly washed with 3 × 5 mL ice-cold 50 mM Tris-HCl (pH 7.4) buffer, air-dried, and counted in a toluene-based scintillation cocktail in a Wallac 1409 scintillation counter (Wallac, Turku, Finland). […]

[4] = shown previously; cited from earlier work
[5] = Tail-flick (TF) antinociceptive assay after icv peptide administration; assay type: in vivo, rat; conditions: for treatment duration until behavioral tolerance complete: 10 μg icv twice daily, data not shown
Method: For intracerebroventricular (icv) peptide administration, the rats were implanted with a stainless steel Luer cannula (10 mm long) aimed at the right lateral cerebral ventricle under Nembutal (35 mg/kg, intraperitoneally) anesthesia. The stereotaxic coordinates were 0.2 mm posterior, 1.7 mm lateral to the bregma, and 3.7 mm deep from the dural surface, according to the atlas of Pellegrino et al.. Cannulas were secured to the skull with dental cement and acrylate. The experiments were started 5 days after icv cannulation. All icv treatments were delivered to freely moving animals to prevent unspecific effects. Upon conclusion of the experiments, 10 μL of methylene blue was injected into the ventricle of decapitated animals and the position of the cannula was inspected visually. Animals with improper cannula placement were excluded from the final statistical analysis.
The peptides were dissolved in artificial cerebrospinal fluid (CSF) and injected in a volume of 2 μL. Endomorphins were administered either acutely at the indicated doses (100 pg–20 μg) or chronically at 20 μg for 10 days (twice daily) and tested at the indicated times. Vehicle control groups obtaining CSF were used in all experiments, and no changes were detected in the antinociceptive response of the control group. […] Animals were killed 16 hrs after drug treatments by decapitation immediately followed by subcellular fractionation.
The original method of D'Amour was used to determine analgesia in the rat by measuring the time required to respond to a radiating heat stimulus. A beam light was focused on the tip of the tail, and the latency required for the rat to remove its tail was determined before (baseline) and after drug administration. The animals were tested at the times shown after injection of the peptides. The antinociceptive effect was expressed according to the equation: (TFn − TFo) × 100/TFmax − TFo, where TFo is the tail-flick latency before drug administration, TFn is the value of a repeated corresponding measurement after drug injection, and TFmax indicates the cutoff time which was set at 10 sec in our assays. Statistical analysis of the data of tail-flick antinociceptive test was made by ANOVA. For significant ANOVA values, groups were compared by Tukey's test for multiple comparisons with unequal cell size. A probability level, P < 0.05, was accepted to label significant differences.

[6] = target: T3, mu-opioid receptors (G-protein activation) (Rattus norvegicus, UniProt P33535); assay: Ligand-stimulated [35S]GTPγS functional assay in crude rat brain membranes; assay type: biochemical
T3 construct: from tissue; host or cells: rat brain without cerebella, crude membranes
T3 sequence (P33535 whole entry): as above
Method: as §1

T1 sequence (P33535 whole entry): as above

## COC(=O)/C=C/C(=O)N[C@@H]1CC[C@@]2(O)[C@H]3Cc4ccc(O)c5c4[C@@]2(CCN3CC2CC2)[C@H]1O5 [beta-funaltrexamine]
[1]
  reduction of the density of mu-opioid receptors throughout the brain: 40–50%

## Tyr-D-Ala-Gly-(NMe)Phe-CH2Cl [DAMCK]
[2]
  effect of chronic treatment on G-protein coupling / [35S]GTPγS incorporation: attenuated G-protein coupling in the MI fraction
[3]
  increase in the density of mu-sites in the MI (light membrane) fraction: 40%
[4]
  antinociception: about 80%
  duration of antinociception: apparently irreversible antinociception
[5]
  treatment duration until behavioral tolerance complete: ≤ 8 days

## C[C@@H](NC(=O)[C@@H](N)Cc1ccc(O)cc1)C(=O)NCC(=O)N(C)[C@@H](Cc1ccccc1)C(=O)NCCO [DAMGO, Tyr-D-Ala-Gly-(NMe)Phe-Gly-ol]
[6]
  agonist character in [35S]GTPγS assay: full agonist
[2]
  effect of chronic treatment on G-protein coupling / [35S]GTPγS incorporation: did not cause any change
[2]; read-out: E max (% over basal) MI Treated
  Emax: 72 ± 9%
[2]; read-out: E max (% over basal) SPM Treated
  Emax: 130 ± 14%
[2]; read-out: efficacy (E max) of DAMGO in control MI, MI of vehicle administered rats, % over basal
  Emax: 85 ± 9%
[2]; read-out: efficacy (E max) of DAMGO in control SPM, SPM of vehicle administered rats, % over basal
  Emax: 95 ± 5%
[3]
  decrease in the density of surface mu-sites (SPM): 22%
[4]
  antinociception: about 80%
  time of peak antinociceptive effect: about 30 min
[5]
  treatment duration until behavioral tolerance complete: ≤ 8 days

## NC(=O)[C@H](Cc1ccccc1)NC(=O)[C@H](Cc1ccccc1)NC(=O)[C@H]1CCCC[C@H]1NC(=O)[C@@H](N)Cc1ccc(O)cc1 [ACHC-EM2, cis-1S,2R-aminocyclohexanecarboxylic acid^2-endomorphin-2]
[5]; 20 μg icv twice daily, rat tail-flick
  treatment duration until analgesic tolerance complete (antinociceptive effect ceased): ≤ 10 days
[5]; 20 μg icv twice daily, tested 5 and 15 min after injection
  day by which decrease of antinociceptive effect became statistically significant vs day 1: ≤ 5 days
[5]; rat tail-flick, after icv injection
  time of peak acute antinociceptive effect: 10 to 15 min
[5]; rat tail-flick, following icv injection
  time by which acute antinociceptive effect dissipated: ≤ 40 min
[5]; rat tail-flick, icv, lower doses, concentration-dependent
  increase in analgesic response compared to base-line values: 20–50%
